The target in one series is T1, wild-type BTK (Homo sapiens, UniProt Q06187).
T1 construct: made in house; host or cells: transiently transfected HEK293 cells (unpurified extract)
The experiment in a line: KdELECT competition binding, wild-type BTK. On the procedure:
Using Eurofins Discovery’s KdELECT Kinase Assay Panel (San Diego, CA), we measured the ATP-independent in vitro binding affinity of the aforementioned BTK inhibitors to wild-type BTK.
Protein extracts were harvested in M-PER extraction buffer (Pierce Biotechnology, Rockford, IL) supplemented with 150 mM NaCl, 10 mM Dithiothreitol (DTT), Protease Inhibitor Cocktail Complete (Roche Diagnostics GmbH, Mannheim, Germany), and Phosphatase Inhibitor Cocktail Set II (Merck KGaA, Darmstadt, Germany) following the manufacturer’s guidelines. The fusion protein was labeled with a DNA tag containing the NFκB binding site fused to an amplicon for qPCR readout, which was added directly to the expression extract.
Kds were calculated using a standard dose–response curve fitting of the data using the Hill equation: Response = Background + (Signal – Background)/(1 + (Kd ^Hill Slope/Dose^Hill Slope). The Hill Slope was set to −1. A nonlinear least-square fit using the Levenberg–Marquardt algorithm was employed for curve fitting.

Series [1] addresses T2, BTK (Homo sapiens, UniProt Q06187).
T2 construct: host or cells: transiently transfected HEK293 cells
The series can be described thus: scanMAX binding POC, BTK. Conditions: 1 μM; zero POC = competition comparable to positive control. An excerpt: Comprehensive Characterization of Bruton’s Tyrosine Kinase Inhibitor Specificity, Potency, and
Biological Effects: Insights into Covalent and Non-Covalent Mechanistic Signatures
Antonia C. Darragh1, Andrew M. Hanna1, Justin H. Lipner2, Alastair J. King2, Nicole B. Servant1, Mirza Jahic1*
*To whom correspondence should be addressed: Mirza Jahic, e-mail address: Mirza.Jahic@discovery.eurofinsus.com
Supporting Table S1. Comparison of BTK inhibitor specificity to TEC family members. TEC family members are
Burton’s tyrosine kinase (BTK), tyrosine kinase expressed in hepatocellular carcinoma (TEC), bone marrow-
expressed kinase (BMX/ETK), and T cell-expressed kinase (TXK/RLK), and interleukin-2-inducible T cell kinase
A zero POC signifies that the compound

Another series concerns the target T3, TXK (Homo sapiens, UniProt P42681).
T3 sequence (P42681 1-527): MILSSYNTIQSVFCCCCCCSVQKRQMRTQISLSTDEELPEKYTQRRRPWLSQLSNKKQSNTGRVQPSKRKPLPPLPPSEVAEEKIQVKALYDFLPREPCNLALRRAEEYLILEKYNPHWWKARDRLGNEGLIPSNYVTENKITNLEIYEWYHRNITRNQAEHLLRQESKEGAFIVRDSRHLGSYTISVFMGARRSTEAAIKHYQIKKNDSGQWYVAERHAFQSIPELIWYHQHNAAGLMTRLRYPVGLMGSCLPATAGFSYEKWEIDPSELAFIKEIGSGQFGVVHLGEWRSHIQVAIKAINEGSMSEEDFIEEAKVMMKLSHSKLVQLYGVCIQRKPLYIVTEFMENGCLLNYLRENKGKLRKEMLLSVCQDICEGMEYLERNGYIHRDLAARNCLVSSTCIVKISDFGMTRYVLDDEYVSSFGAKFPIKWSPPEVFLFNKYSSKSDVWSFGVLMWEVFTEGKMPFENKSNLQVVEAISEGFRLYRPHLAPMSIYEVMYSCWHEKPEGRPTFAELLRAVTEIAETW
The series can be described thus: scanMAX binding POC, TXK. Conditions: 1 μM.

In the next series the target is EGFR (Homo sapiens, UniProt P00533). The experiment in a line: scanMAX binding POC, EGFR. The settings on record: 1 μM.
The target of another series is ERBB4 (Homo sapiens, UniProt Q15303). The series can be described thus: scanMAX binding POC, ERBB4. The settings on record: 1 μM.
For series [2], the system named is 12 human primary cell systems. The experiment in a line: BioMAP Diversity PLUS Panel. The settings on record: for number of biological effects (biomarkers modulated) / number of effects in a non-B cell (non-BT) model: 1 μM; for immunomodulatory activities / tissue remodeling activities / inflammation-related activities / hemostasis/angiogenesis-related activities: biomarker level relative to vehicle control: ↑ increase, ↓ decrease; for inflammation-related activities: ↓↑ both; for hemostasis/angiogenesis-related activities: TF in the 3C model; for antiproliferative effects: cell types affected, concentrations (nM) in brackets; for detectable cytotoxicity: concentrations (nM): ibrutinib 3300, 1100, 370, 120, pirtobrutinib and fenebrutinib 1000, 330, 110, 37, spebrutinib 370, 120, 41, 14. It is filed as cell-based. The method, then: BioMAP Diversity PLUS Panel (Eurofins Discovery, St. Charles, MO) is composed of 12 human primary cell cultures or cocultures. The systems and stimuli have been described previously. Adherent cells were added to 96-well plates, allowed to reach confluence, and incubated for 1 h with the indicated BTK inhibitor or assay control, all dissolved in 0.1% DMSO. The cells were then stimulated with cytokines, agonists, or growth factors and cultured for a minimum of 24 h at 37 °C in 5% CO2. Assay controls included DMSO-only (vehicle control), nonstimulated conditions (negative control), and a positive control test agent (colchicine at 1 μM).
Cell proliferation and viability were measured using 0.1% sulforhodamine B (SRB, Sigma–Aldrich) after fixation with 10% TCA, and reading wells at 560 nm for adherent cells, and using alamarBlue reduction (Bio-Rad) for suspension cells. These biomarkers were previously described by Shah and colleagues.
For each biomarker, the value obtained from the BTK inhibitor-treated samples was divided by the average of 8 DMSO-only controls from the same plate, yielding a ratio that was then transformed to the log10 scale. […] For cytotoxicity, we considered a decrease in the SRB readout greater than 50% (<−0.3 on the log10 scale) significant and excluded from the analysis the corresponding concentrations. The acceptance criteria and quality assurance of the BioMAP experiments have been previously described.

The test system of series [3] is 468 kinases/kinase domains. Conditions: scanMAX at 1 μM; for selectivity: category by number of off-targets.
Description: The compounds were diluted directly into the assays such that the final concentration of DMSO was 0.9%. No enzyme purification steps were performed on the protein extracts before adding them to the reaction mixture, and the protein extracts were diluted 10,000-fold in the final reaction mixture (the final DNA-tagged enzyme concentration was less than 0.1 nM). Binding assay mixtures were incubated at 25 °C with shaking for 1 h. […] The concentration of wild-type or mutant BTK in the eluates was then determined using quantitative PCR.
The target of series [4] is BTK. Conditions: wild-type BTK; average of literature values; read-out: average published Kd for BTK; cited from earlier work.
Setting [5] is: ATP-independent in vitro binding, 25 °C, read-out: Kd for wild-type BTK.
[6] abbreviates: category by Kd for wild-type BTK, read-out: potency for BTK.
Setting [7] is: wild-type BTK, average of N replicates, each in technical duplicate, read-out: average in-house Kd for BTK.

Entries after “also recorded” stand apart in the source; their conditions may differ. Read-outs that look alike come from different tables or passages of the source. Where only a bound is given, the exact number is not on record here.

Chain of ERBB4 (Q15303 26-1308): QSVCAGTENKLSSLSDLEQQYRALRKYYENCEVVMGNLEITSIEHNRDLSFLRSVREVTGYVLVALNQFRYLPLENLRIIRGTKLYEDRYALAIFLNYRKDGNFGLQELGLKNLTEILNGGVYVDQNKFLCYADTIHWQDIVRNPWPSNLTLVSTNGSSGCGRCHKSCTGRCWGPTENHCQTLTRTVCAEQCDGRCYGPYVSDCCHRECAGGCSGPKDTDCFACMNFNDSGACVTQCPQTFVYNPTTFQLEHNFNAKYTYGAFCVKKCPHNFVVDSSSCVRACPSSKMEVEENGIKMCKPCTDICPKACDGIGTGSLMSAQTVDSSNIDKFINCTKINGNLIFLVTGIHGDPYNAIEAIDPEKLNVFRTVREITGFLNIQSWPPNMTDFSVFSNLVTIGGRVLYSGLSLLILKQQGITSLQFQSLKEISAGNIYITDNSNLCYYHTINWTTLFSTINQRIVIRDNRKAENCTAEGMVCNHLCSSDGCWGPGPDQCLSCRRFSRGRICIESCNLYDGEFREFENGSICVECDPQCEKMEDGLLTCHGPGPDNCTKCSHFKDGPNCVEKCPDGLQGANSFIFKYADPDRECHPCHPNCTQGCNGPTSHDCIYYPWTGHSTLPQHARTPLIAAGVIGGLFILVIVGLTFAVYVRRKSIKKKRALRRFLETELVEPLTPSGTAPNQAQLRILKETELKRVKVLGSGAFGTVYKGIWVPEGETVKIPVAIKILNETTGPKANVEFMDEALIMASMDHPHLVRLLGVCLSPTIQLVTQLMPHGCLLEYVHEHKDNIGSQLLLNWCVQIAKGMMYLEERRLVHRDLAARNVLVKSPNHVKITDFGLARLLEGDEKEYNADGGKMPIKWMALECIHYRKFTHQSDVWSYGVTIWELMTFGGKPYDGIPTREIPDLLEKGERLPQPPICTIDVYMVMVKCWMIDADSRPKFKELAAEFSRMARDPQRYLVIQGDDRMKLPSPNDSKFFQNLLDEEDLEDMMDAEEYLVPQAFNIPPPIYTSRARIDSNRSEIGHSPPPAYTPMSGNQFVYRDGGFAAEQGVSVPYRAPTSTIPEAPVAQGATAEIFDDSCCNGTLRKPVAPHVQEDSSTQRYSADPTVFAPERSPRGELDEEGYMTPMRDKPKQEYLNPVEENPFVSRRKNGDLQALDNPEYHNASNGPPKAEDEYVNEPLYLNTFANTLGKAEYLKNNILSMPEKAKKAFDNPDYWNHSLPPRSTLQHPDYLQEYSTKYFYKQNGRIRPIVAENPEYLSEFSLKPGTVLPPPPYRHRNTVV
T1 sequence (Q06187 whole entry): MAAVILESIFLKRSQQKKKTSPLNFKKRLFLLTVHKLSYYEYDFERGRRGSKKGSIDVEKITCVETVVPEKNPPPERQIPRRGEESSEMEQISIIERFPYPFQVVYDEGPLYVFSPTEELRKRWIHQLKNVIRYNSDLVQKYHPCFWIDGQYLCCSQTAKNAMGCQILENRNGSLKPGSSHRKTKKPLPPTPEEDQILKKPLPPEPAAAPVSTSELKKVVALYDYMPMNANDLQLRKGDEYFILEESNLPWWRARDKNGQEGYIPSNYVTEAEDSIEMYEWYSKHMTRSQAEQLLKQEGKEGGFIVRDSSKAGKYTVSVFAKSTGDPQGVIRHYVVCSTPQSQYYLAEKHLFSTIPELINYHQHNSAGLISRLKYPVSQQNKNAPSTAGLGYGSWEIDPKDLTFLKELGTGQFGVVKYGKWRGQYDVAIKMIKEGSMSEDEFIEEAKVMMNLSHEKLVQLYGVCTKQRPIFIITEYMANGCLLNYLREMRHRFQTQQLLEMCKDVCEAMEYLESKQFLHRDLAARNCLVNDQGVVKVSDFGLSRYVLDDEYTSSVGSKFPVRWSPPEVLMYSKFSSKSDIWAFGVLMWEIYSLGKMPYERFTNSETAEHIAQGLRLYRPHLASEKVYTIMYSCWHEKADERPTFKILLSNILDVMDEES
T2 sequence (Q06187 whole entry): as above
Chain of EGFR (P00533 25-1210): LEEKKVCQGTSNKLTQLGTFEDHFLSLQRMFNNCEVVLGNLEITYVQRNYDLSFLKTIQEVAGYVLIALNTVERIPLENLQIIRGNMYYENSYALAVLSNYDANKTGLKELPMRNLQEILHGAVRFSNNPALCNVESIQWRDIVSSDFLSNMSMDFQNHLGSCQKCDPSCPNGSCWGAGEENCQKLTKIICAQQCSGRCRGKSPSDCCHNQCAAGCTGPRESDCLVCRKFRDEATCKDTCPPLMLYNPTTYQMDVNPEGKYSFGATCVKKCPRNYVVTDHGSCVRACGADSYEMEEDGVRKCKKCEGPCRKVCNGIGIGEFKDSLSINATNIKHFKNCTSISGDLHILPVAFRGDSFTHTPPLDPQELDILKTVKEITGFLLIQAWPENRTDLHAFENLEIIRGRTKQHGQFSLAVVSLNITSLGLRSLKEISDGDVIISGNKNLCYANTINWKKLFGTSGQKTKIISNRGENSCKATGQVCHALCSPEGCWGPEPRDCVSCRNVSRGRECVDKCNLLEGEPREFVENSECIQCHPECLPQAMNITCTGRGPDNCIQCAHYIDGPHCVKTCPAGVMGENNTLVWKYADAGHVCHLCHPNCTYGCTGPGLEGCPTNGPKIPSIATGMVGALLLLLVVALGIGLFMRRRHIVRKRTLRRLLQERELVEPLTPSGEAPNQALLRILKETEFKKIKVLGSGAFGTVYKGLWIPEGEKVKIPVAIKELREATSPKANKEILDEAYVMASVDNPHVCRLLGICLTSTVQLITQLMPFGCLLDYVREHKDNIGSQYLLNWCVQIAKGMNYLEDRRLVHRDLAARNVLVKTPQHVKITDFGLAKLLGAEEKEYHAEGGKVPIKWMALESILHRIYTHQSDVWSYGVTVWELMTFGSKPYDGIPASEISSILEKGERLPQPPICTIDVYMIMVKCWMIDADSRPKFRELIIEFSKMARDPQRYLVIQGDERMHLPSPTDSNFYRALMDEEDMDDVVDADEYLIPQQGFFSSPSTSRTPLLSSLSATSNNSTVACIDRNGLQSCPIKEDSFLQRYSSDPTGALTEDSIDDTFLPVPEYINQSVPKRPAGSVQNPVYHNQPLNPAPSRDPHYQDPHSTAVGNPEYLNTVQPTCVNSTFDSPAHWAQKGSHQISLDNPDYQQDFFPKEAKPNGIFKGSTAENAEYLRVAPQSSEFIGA

Consider `COc1ccc(F)cc1C(=O)NCc1ccc(-c2nn([C@@H](C)C(F)(F)F)c(N)c2C(N)=O)cc1` [Pirtobrutinib], for which the Kd at wild-type BTK (setting [5]) amounted to 0.81 nM. Moreover, at wild-type BTK (setting [6]), the Kd was under 1 nM. At wild-type BTK (wild-type BTK), the “fold difference between in-house and published Kd's” value was determined as 1.1 fold. Moreover, the Kd at wild-type BTK (setting [7]) stood at 0.81 nM. Also, the “BTK binding POC” value on BTK [1] was 0% of control. Also, the “TXK binding POC” value on TXK is recorded as 11% of control. In addition, the “EGFR binding POC” value at EGFR is 0.5% of control. Further, the “ERBB4 binding POC” value on ERBB4 was 2% of control. Also, in series [2], the “number of biological effects (biomarkers modulated)” value is 7; the “number of effects in a non-B cell (non-BT) model” value turned out to be 1; the immunomodulatory activities entry is on record as “↓ sIL-17A, sIL-17F, sIL-2, sIL-6”; the tissue remodeling activities result is “none”. In series [2], the inflammation-related activities entry is “↓ sTNFα, IL-1α”; the hemostasis/angiogenesis-related activities result is reported as “none”; the antiproliferative effects result is reported as “B cells (1000, 330, 110, 37)”; the detectable cytotoxicity result was “none”. Also, the selectivity entry in series [3] is recorded as “moderate (moderate (12–50 off-targets))”. Further, the Kd at BTK [4] is 0.9 nM.
Take `C=CC(=O)Nc1cccc(Nc2nc(Nc3ccc(OCCOC)cc3)ncc2F)c1` [Spebrutinib]: the “BTK binding POC” value on BTK [1] is listed as 0% of control. On TXK, the “TXK binding POC” value is 4.5% of control. Moreover, on EGFR, the “EGFR binding POC” value was 49% of control. The “ERBB4 binding POC” value on ERBB4 was 17% of control. Moreover, in series [2] (370 nM), the “number of biological effects” value is recorded as 11 and the “number of effects not in the BT model” value is given as 6. Moreover, in series [2], the immunomodulatory activities result is recorded as “↓ sIL-17A, sIL-2, sIL-6”; the tissue remodeling activities result was “↓ PAI-1, Col-I, Col-IV”; the inflammation-related activities entry is “↓ sTNFα”; the hemostasis/angiogenesis-related activities result is given as “none”. Besides, in series [2], the antiproliferative effects result is listed as “B cells (370, 120, 41, 14); endothelial cells (370); CASM cells (370); fibroblast cells (370)” and the detectable cytotoxicity entry is listed as “none”. Further, in series [2] (listed as spebrutinib), the tissue remodeling activities entry was “decreased the activity of tissue remodeling biomarkers”; the antiproliferative effects result was “antiproliferative effects in endothelial (3C), coronary artery smooth muscle (CASM), and fibroblast (HDF3CGF) cells; also recorded: antiproliferative activity in CASM cells”.
Take `O=C(c1ccc(Oc2ccccc2)cc1Cl)c1c[nH]c2ncnc(N[C@@H]3CC[C@@H](CO)OC3)c12` [Nemtabrutinib]: at BTK [1], the “BTK binding POC” value is on record as 0.6% of control. The “TXK binding POC” value on TXK is 2.7% of control. In addition, on EGFR, the “EGFR binding POC” value is 0% of control. Also, the “ERBB4 binding POC” value on ERBB4 is 0.35% of control. The off-target hits in series [3] (POC <35) worked out at 97. For the same compound, the Kd on BTK [4] is 46 nM.
Regarding `C=CC(=O)N1CCC[C@@H](c2ccc(C(N)=O)c3[nH]ccc23)C1` [Elsubrutinib], the Kd was 2.9 nM at wild-type BTK (setting [5]), 1 to 10 nM at wild-type BTK (setting [6]), 2.9 nM at wild-type BTK (setting [7]) and 3.1 nM at BTK [4]. In addition, at wild-type BTK (wild-type BTK), the “fold difference between in-house and published Kd's” value was determined as 1.1 fold. Further, the “BTK binding POC” value at BTK [1] was 0.1% of control. For the same compound, the “TXK binding POC” value at TXK is reported as 25% of control. Further, the “EGFR binding POC” value at EGFR is 90% of control. Also, the “ERBB4 binding POC” value at ERBB4 is listed as 91% of control. In addition, the selectivity entry in series [3] is “high (high (≤11 off-targets))”.
On to `C[C@H]1CN(C2COC2)CCN1c1ccc(Nc2cc(-c3ccnc(N4CCn5c(cc6c5CC(C)(C)C6)C4=O)c3CO)cn(C)c2=O)nc1` [Fenebrutinib], for which the “TXK binding POC” value at TXK is on record as 53% of control. For the same compound, at EGFR, the “EGFR binding POC” value was 95% of control. In addition, the “ERBB4 binding POC” value at ERBB4 is given as 100% of control. Moreover, in series [2], the “number of biological effects (biomarkers modulated)” value turned out to be 8; the “number of effects in a non-B cell (non-BT) model” value was determined as 3; the immunomodulatory activities result is “↓ sIgG, sIL-2, sIL-6”; the tissue remodeling activities result is “none”. Moreover, in series [2], the inflammation-related activities entry is “↓ sTNFα, IL-1α”; the hemostasis/angiogenesis-related activities result is reported as “↑ TF”; the antiproliferative effects result was “B cells (1000, 330, 110, 37)”; the detectable cytotoxicity entry is reported as “none”. Further, the hemostasis/angiogenesis-related activities entry in series [2] (listed as fenebrutinib) was “increase in the production of Tissue Factor (TF)”.
With `C=CC(=O)Nc1cccc(Oc2nc(Nc3ccc(N4CCN(C)CC4)cc3)nc3ccoc23)c1` [Poseltinib], the figures for the Kd on wild-type BTK (setting [5]), on wild-type BTK (setting [6]) and on wild-type BTK (setting [7]) were 1.5 nM, 1 to 10 nM and 1.5 nM, respectively. The “BTK binding POC” value on BTK [1] was 0.1% of control. The “TXK binding POC” value on TXK was 4.4% of control. On EGFR, the “EGFR binding POC” value is given as 1.2% of control. For the same compound, at ERBB4, the “ERBB4 binding POC” value is recorded as 0.15% of control. Moreover, the selectivity result in series [3] was “moderate (moderate (12–50 off-targets))”.

The record behind these values is paper PMC11997881, “Comprehensive Characterization of Bruton’s Tyrosine Kinase Inhibitor Specificity, Potency, and Biological Effects: Insights into Covalent and Noncovalent Mechanistic Signatures” (ACS Pharmacology & Translational Science, 2025).
